According to patent US20150342190A1, “METHODS FOR LEVERAGING HORMESIS IN PLANT BREEDING AND PLANTS WITH ENHANCED HORMESIS EFFECTS” (PIONEER HI BRED INTERNATIONAL INC, priority 2014, published 2015):
Like-named read-outs stand apart in the source and are kept apart here.

What was measured:
Type in all cases: in vivo
[1] = system: soybean line 93M94 (RR + Als1)
Procedure: (§1) The field trial was conducted as a 7×4 factorial experiment (7 herbicide regimes×4 genotypes) in a split block design with main blocks as herbicide treatments. The trial was conducted at 3 different environments (separate field locations) in Iowa during the summer of 2014. Herbicide control treatment #1 (no sulfonylurea) was replicated 12 times within each of the 3 environments (36 reps total). Herbicide treatments 2 through 7 (Table 7) were replicated 6 times at each of the 3 environments (18 reps total). The additional replication of control treatment #1 was done to increase precision of the treatment mean to which all other treatments (#2 through 7) would be compared.
(§2) It is important to note that both tribenuron and rimsulfuron are more toxic to wild type soybeans than other SU's that could also be tested. But treatment with these specific SU's and application rates was intended to push the limits of SU tolerance so that any response differences between lines could be exposed. The 4 genotypes (Table 6) were randomized within each of the main blocks to facilitate post-emergence application of the various herbicide treatments (Table 7). Each experimental unit was a 2-row soybean plot 15 feet long with 30 inch row spacing and a planting density of 8 seeds per foot of row. Planting was done in mid-May and harvest was done in early October at all 3 environments in 2014.
(§3) Several weeks after planting, the entire field was sprayed post-emergence at the V2 (2-leaf) stage with Roundup PowerMax® at 44 oz/acre (30 oz/acre ai glyphosate) with the addition of ammonium sulfate at a rate of 8 lb per 100 gallons as according to label. Several days later at the V3 (3-leaf) stage, herbicide treatments 2 through 7 (Table 7) were applied according to label directions including the addition of ammonium sulfate at a rate of 8 lb per 100 gallons of spray solution. Randomly embedded control plots of a given soybean genotype facilitated side-by-side visual estimates of herbicide injury. Plots were given visual injury ratings at 14 days after herbicide treatment (14 DAT). Visual injury estimates were assigned to reflect the crop response (a combination of reduced vigor and/or chlorosis) of sprayed rows in relation to the randomly embedded control plots. Injury scores were based on a 0-100% scale, with 0 indicating no crop response and 100 indicating all plants killed.
(§4) At maturity, the seed from each plot was harvested with weight and moisture recorded. Weights were then adjusted to 13% moisture content and reported in units of bushels per acre (bu/a). Yields were also converted to % of control on a “per line” and “per environment” basis. For example, the average yield of SU-treated 93Y92BC3 plots were compared to the average yield of 93Y92BC3 control plots within a given environment and then averaged across environments.

[2] = system: soybean line 94Y02 (RR + Als1)
Procedure: as §1, §2, §3, §4

[3] = system: soybean line 93Y82BC3 (RR + Als1 + Als2); assay: 2014 field hormesis trial (Example 4)
Procedure: as §1, §2, §3, §4

[4] = system: soybean line 93Y92BC3 (RR + Als1 + Als2); assay: 2014 field hormesis trial (Example 4)
Procedure: as §1, §2, §3, §4

[5] = system: soybean line BC44883336 (ALS1 + ALS2); assay: Field yield trial with herbicide treatments (Example 2); conditions: full herbicide concentration (Tribenuron 1.0X) at V3
Procedure: (§5) Table 2 describes the soy lines used and whether ALS1, ALS2, or both herbicide resistant genes were present in each.
(§6) Each of the lines in Table 2 was grown at a density of 150,000 seeds/acre (˜8 seeds per foot of row) in two 30 inch rows. Each line was divided into four groups, and each group of each line was subjected to one of the four herbicide treatments listed in Table 3.
(§7) Group 1 of each line was the control group that received no herbicide treatment. Groups 2, 3, and 4 of each line were treated with different concentrations of herbicide corresponding to approximately ¼ strength, ½ strength, and full strength (needed for weed control) respectively of the recommended concentrations of the herbicide DuPont™ Express® w/TotalSol®, which includes Tribenuron, a sulfonylurea herbicide. The herbicide treatment spray solution was prepared according to the label instructions with a non-ionic surfactant and an adjuvant (ammonium sulfate). The herbicide was applied to Groups 2, 3, and 4 during the V3 growth phase, the plants were grown to maturity, and yield measurements were made. Each genotype×herbicide treatment group was replicated six times.

[6] = system: soybean line BC44883300 (ALS2); assay: as above; conditions: full herbicide concentration (Tribenuron 1.0X) at V3
Procedure: as §5, §6, §7

[7] = system: soybean line BC44883269 (ALS2); assay: as above; conditions: full herbicide concentration (Tribenuron 1.0X) at V3
Procedure: as §5, §6, §7

[8] = system: soybean line BC44883270 (ALS1 + ALS2); assay: as above; conditions: full herbicide concentration (Tribenuron 1.0X) at V3
Procedure: as §5, §6, §7

soybean lines of Table 2 = assay: Field yield trial with herbicide treatments (Example 2), all lines; conditions: 1/4 concentration herbicide application (Tribenuron 0.25X) at V3
Procedure: as §5, §6, §7

[9] = system: glyphosate tolerant maize inbred line PH1BVW2; assay: Glyphosate treatment of hydroponically grown maize inbreds, shoot fresh weight (Example 5); conditions: seedling fresh weight
Procedure: (§8) Seeds from four glyphosate tolerant maize inbred lines (PH1BVW2, PH1PMB1, PHSZB1 and PH19081) were washed in 0.615% NaClO solution for 5 minutes and rinsed with deionized water. They were germinated for one week and then transferred into individual 10″ Deepot tubes (1 seedling/tube), either with foam plugs to suspend the plants in the tubes (Experiments 1 &2) or filled with Turface (Experiments 3 & 4). These tubes were placed into hydroponic growing tanks (100 tubes/tank) with a modified Hoagland's media. At the end of the 2nd week after planting, plants from selected tanks were sprayed with glyphosate solutions equivalent to 1× or 2× of the recommended dosage (1× dosage: 1 quart of liquid Round-Up WeatherMax® per acre, or 21.75 ul/ft2). Separately, three inbred lines without the glyphosate tolerance trait (PH1BVW2, PH1PMB1, and PHSZB1) were treated with the same dosages of glyphosate to confirm the efficacy of the herbicide. The inbred lines without the glyphosate tolerance trait were killed by both glyphosate treatments, as expected. Four weeks after germination, plants were harvested and shoot fresh weight was recorded.

[10] = system: glyphosate tolerant maize inbred line PH19081; assay: as above; conditions: seedling fresh weight
Procedure: as §8

[11] = system: inbred lines without the glyphosate tolerance trait (PH1BVW2, PH1PMB1, and PHSZB1); assay: Glyphosate efficacy check on non-tolerant maize inbreds (Example 5); conditions: both glyphosate treatments (1× and 2× of the recommended dosage), spray
Procedure: as §8

[12] = 0.5x rate at V3, 3 environments
[13] = herbicide treatments 2 and 3 (tribenuron 0.5x and 1x), 14 DAT

COc1nc(C)nc(N(C)C(=O)NS(=O)(=O)c2ccccc2C(=O)O)n1 [tribenuron]
Yield as % of control ([1]; 0.5x rate at V3): 98%
Yield effect ([1]; 0.5x rate at V3): neutral
Yield (bu/a) [1, 12]: 47.5 bu/a
Visual injury 14 DAT ([1]; 0.5x rate at V3, 14 DAT): 10%
Yield as % of control ([1]; 1x rate at V3): 101%
Yield effect ([1]; 1x rate at V3): neutral
Yield (bu/a) ([1]; 1x rate at V3, 3 environments): 48.9 bu/a
Visual injury 14 DAT ([1]; 1x rate at V3, 14 DAT): 18%
Yield as % of control ([1]; 2x rate at V3): 87%
Yield effect ([1]; 2x rate at V3): negative
Yield (bu/a) ([1]; 2x rate at V3, 3 environments): 41.9 bu/a
Visual injury 14 DAT ([1]; 2x rate at V3, 14 DAT): 39%
Yield as % of control ([2]; 0.5x rate at V3): 99%
Yield effect ([2]; 0.5x rate at V3): neutral
Yield (bu/a) [2, 12]: 58.8 bu/a
Visual injury 14 DAT ([2]; 0.5x rate at V3, 14 DAT): 9%
Yield as % of control ([2]; 1x rate at V3): 98%
Yield effect ([2]; 1x rate at V3): neutral
Yield (bu/a) ([2]; 1x rate at V3, 3 environments): 58.2 bu/a
Visual injury 14 DAT ([2]; 1x rate at V3, 14 DAT): 19%
Yield as % of control ([2]; 2x rate at V3): 82%
Yield effect ([2]; 2x rate at V3): negative
Yield (bu/a) ([2]; 2x rate at V3, 3 environments): 48.6 bu/a
Visual injury 14 DAT ([2]; 2x rate at V3, 14 DAT): 39%
Yield as % of control ([3]; 0.5x rate at V3): 101%
Yield effect ([3]; 0.5x rate at V3): neutral
Yield (bu/a) [3, 12]: 61.1 bu/a
Visual injury 14 DAT ([3]; 0.5x rate at V3, 14 DAT): 3%
Yield as % of control ([3]; 1x rate at V3): 101%
Yield effect ([3]; 1x rate at V3): neutral
Yield (bu/a) ([3]; 1x rate at V3, 3 environments): 61.3 bu/a
Visual injury 14 DAT ([3]; 1x rate at V3, 14 DAT): 6%
Yield as % of control ([3]; 2x rate at V3): 102%
Yield effect ([3]; 2x rate at V3): neutral
Yield (bu/a) ([3]; 2x rate at V3, 3 environments): 61.4 bu/a
Visual injury 14 DAT ([3]; 2x rate at V3, 14 DAT): 16%
average visual injury [3, 13]: ≤ 6%
Yield as % of control ([4]; 0.5x rate at V3): 106%
Yield effect ([4]; 0.5x rate at V3): Positive
Yield (bu/a) [4, 12]: 59.4 bu/a
Visual injury 14 DAT ([4]; 0.5x rate at V3, 14 DAT): 2%
Yield as % of control ([4]; 1x rate at V3): 104%
Yield effect ([4]; 1x rate at V3): Positive
Yield (bu/a) ([4]; 1x rate at V3, 3 environments): 58.0 bu/a
Visual injury 14 DAT ([4]; 1x rate at V3, 14 DAT): 5%
Yield as % of control ([4]; 2x rate at V3): 108%
Yield effect ([4]; 2x rate at V3): Positive
Yield (bu/a) ([4]; 2x rate at V3, 3 environments): 60.0 bu/a
Visual injury 14 DAT ([4]; 2x rate at V3, 14 DAT): 14%
average visual injury [4, 13]: ≤ 6%
yield improvement over the control [5]: ~13%
yield decrease [6]: ~19%
yield decrease [7]: about 32%
yield improvement over the control [8]: about 4.5%
yield relative to the control (hormesis effect) (soybean lines of Table 2): relative yield increase

O=C(O)CNCP(=O)(O)O [glyphosate]
hormesis effect upon application of herbicide [9]: positive hormesis effect
hormesis effect upon application of herbicide [10]: positive hormesis effect
efficacy of the herbicide on non-tolerant lines [11]: killed

CCS(=O)(=O)c1cccnc1S(=O)(=O)NC(=O)Nc1nc(OC)cc(OC)n1 [rimsulfuron]
Yield as % of control ([1]; 0.5x rate at V3): 76%
Yield effect ([1]; 0.5x rate at V3): negative
Yield (bu/a) [1, 12]: 36.7 bu/a
Yield as % of control ([1]; 1x rate at V3): 51%
Yield effect ([1]; 1x rate at V3): negative
Yield (bu/a) ([1]; 1x rate at V3, 3 environments): 24.7 bu/a
Yield as % of control ([1]; 2x rate at V3): 41%
Yield effect ([1]; 2x rate at V3): negative
Yield (bu/a) ([1]; 2x rate at V3, 3 environments): 19.6 bu/a
Yield as % of control ([2]; 0.5x rate at V3): 54%
Yield effect ([2]; 0.5x rate at V3): negative
Yield (bu/a) [2, 12]: 31.7 bu/a
Yield as % of control ([2]; 1x rate at V3): 33%
Yield effect ([2]; 1x rate at V3): negative
Yield (bu/a) ([2]; 1x rate at V3, 3 environments): 19.5 bu/a
Yield as % of control ([2]; 2x rate at V3): 21%
Yield effect ([2]; 2x rate at V3): negative
Yield (bu/a) ([2]; 2x rate at V3, 3 environments): 12.2 bu/a
Yield as % of control ([3]; 0.5x rate at V3): 99%
Yield effect ([3]; 0.5x rate at V3): neutral
Yield (bu/a) [3, 12]: 60.1 bu/a
Yield as % of control ([3]; 1x rate at V3): 93%
Yield effect ([3]; 1x rate at V3): negative
Yield (bu/a) ([3]; 1x rate at V3, 3 environments): 56.2 bu/a
Yield as % of control ([3]; 2x rate at V3): 81%
Yield effect ([3]; 2x rate at V3): negative
Yield (bu/a) ([3]; 2x rate at V3, 3 environments): 48.7 bu/a
Yield as % of control ([4]; 0.5x rate at V3): 107%
Yield effect ([4]; 0.5x rate at V3): Positive
Yield (bu/a) [4, 12]: 59.8 bu/a
Yield as % of control ([4]; 1x rate at V3): 108%
Yield effect ([4]; 1x rate at V3): Positive
Yield (bu/a) ([4]; 1x rate at V3, 3 environments): 60.5 bu/a
Yield as % of control ([4]; 2x rate at V3): 89%
Yield effect ([4]; 2x rate at V3): negative
Yield (bu/a) ([4]; 2x rate at V3, 3 environments): 49.9 bu/a
